15 molecules from patent US20020183518A1, “Modulators of proteins with phosphotyrosine recognition units” (ONTOGEN CORPORATION, priority 1995, published 2002) can be followed below.

Common to all, as to type: biochemical
The target of experiment [1] is PTP-1C (Homo sapiens, UniProt P29350). The experiment can be described thus: In vitro PTPase inhibition assay (pNPP, colorimetric), PTP-1C. As to conditions: Table 8; 100 μM compound. Here is the method: (§1) The ability of the compounds of the present invention, such as the cinnamic 4 acid derivative compounds of Example 2, to inhibit the PTPase activity of PTP-1B, CD45, PTP-1C, and PTPα was determined using modifications of the PTP-1B and CD45 activity assays described in Examples 3 and 4.
PTP-1C, sequence (P29350 whole entry, species assumed): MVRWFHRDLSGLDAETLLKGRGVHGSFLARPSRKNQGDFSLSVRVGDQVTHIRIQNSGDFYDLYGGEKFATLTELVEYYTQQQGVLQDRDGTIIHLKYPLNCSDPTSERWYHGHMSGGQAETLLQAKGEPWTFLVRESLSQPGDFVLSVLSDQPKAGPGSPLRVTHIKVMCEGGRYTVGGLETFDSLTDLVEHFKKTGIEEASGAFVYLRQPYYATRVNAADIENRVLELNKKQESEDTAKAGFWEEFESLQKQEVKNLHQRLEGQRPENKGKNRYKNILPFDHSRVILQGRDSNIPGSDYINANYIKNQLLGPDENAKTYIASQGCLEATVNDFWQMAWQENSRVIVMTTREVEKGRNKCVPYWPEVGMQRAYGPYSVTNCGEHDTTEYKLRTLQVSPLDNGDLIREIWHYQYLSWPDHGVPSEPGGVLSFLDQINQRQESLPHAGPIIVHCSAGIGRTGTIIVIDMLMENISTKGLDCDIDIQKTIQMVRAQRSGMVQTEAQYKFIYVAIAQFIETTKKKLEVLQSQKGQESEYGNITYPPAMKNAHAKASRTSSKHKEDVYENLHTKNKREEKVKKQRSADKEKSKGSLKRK
(§2) First, 0.001 mmol of the cinnamic acid derivative (or other PTPase inhibitor compound) was dissolved in 100 ul of DMSO to create a 10 mM stock solution. The 10 mM stock solution was used to add varying concentrations (100 uM, 133 uM, 10 uM, 3 uM, 1 uM, 0.3 uM, 0.1 uM, 0.03 uM, 0.01 uM or 0.003 uM) of the inhibitor compound to a series of otherwise identical PTPase activity assay reactions (100 ul final volume in microtiter wells). Thus, each 100 ul reaction contained 10 ul PTPase enzyme stock solution (final phosphatase concentration of approximately 20 ng/well), 70 ul activity assay buffer, 10 ul pNPP stock solution (final pNPP concentration of 0.9 mM for PTP-1B assay, 0.93 mM for CD45 assay, 0.5 mM for PTPα assay, and 8 mM for PTP-1C assay), and 10 ul of the diluted inhibitor compound in DMSO. Assay buffers contained: for CD45 and PTP-1B assays, 100 mM sodium acetate at pH 6.0, 1 mM EDTA, 0.1% Triton X-100, and 15 mM bME; for PTP-1C assays, 100 mM sodium acetate at pH 5.5, 0.1% BSA, and 15 mM bME; for PTPα assays, 100 mM sodium acetate at pH 5.25, 0.1% BSA, and 15 mM bME. Purified phosphatase was added to the reaction mixtures to begin the reactions; the reactions were incubated at 37° C. for 60 min. (for PTP-1B and CD45 assays) or at 27° C. for 60 min. (for PTP-1C and PTPα assays), stopped, and colorimetrically analyzed as described above. As positive and negative controls, reactions were performed containing 10 ul DMSO with no inhibitor compound or containing the known PTPase inhibitors vanadate (final concentration 0.5 mM; for PTP-1B and CD45 assays) or ammonium molybdate (final concentration 1 mM; for PTP-1C and PTPα assays) substituted for the inhibitor compound of the invention.
(§3) The concentration of inhibitor compound required to inhibit 50% of the PTPase activity (IC50) was determined as follows. First, absorbance readings from the negative control reactions were treated as a baseline and subtracted from the absorbance readings of the experimental reactions. Then, for each reaction, a percent inhibition was calculated using the following formula: […]
(§4) The ability of the compounds of the present invention, such as the cinnamic acid derivative compounds of Example 2, to inhibit the PTPase activity of PTP-1B, CD45, PTP-1C, and PTPα was determined using modifications of the PTP-1B and CD45 activity assays described in Examples 3 and 4.
as §2, with “uM, 33” for “uM, 133”, “EDTA, 0. 1%” for “EDTA, 0.1%”, “at 27 C” for “at 27° C.”, “min.” for “min. (for PTP-1C and PTPα assays), stopped, and colorimetrically analyzed as described above. As positive and negative controls, reactions were performed containing 10 ul DMSO with no inhibitor compound or containing the known PTPase inhibitors vanadate (final concentration 0.5 mM; for PTP-1B and CD45 assays) or ammonium molybdate (final concentration 1 mM; for PTP-1C and PTPα assays) substituted for the inhibitor compound of the invention.”

Experiment [2] addresses PTPα (Homo sapiens, UniProt P18433). As to the kind of experiment: In vitro PTPase inhibition assay (pNPP, colorimetric), PTPα. Particulars: Table 8; 100 μM compound. The procedure: as §1, §2, §3, §4
as §2, with “uM, 33” for “uM, 133”, “EDTA, 0. 1%” for “EDTA, 0.1%”, “at 27 C” for “at 27° C.”, “min.” for “min. (for PTP-1C and PTPα assays), stopped, and colorimetrically analyzed as described above. As positive and negative controls, reactions were performed containing 10 ul DMSO with no inhibitor compound or containing the known PTPase inhibitors vanadate (final concentration 0.5 mM; for PTP-1B and CD45 assays) or ammonium molybdate (final concentration 1 mM; for PTP-1C and PTPα assays) substituted for the inhibitor compound of the invention.”

Experiment [3] concerns the target T1, PTP-1B (Homo sapiens, UniProt P18031).
T1 construct: known to encode a 321 amino acid fragment containing the PTP-1B catalytic domain and having PTPase activity; made in house; host or cells: E. coli DH5α, plasmid pGEX-3X-PTP-1B
T1 sequence (P18031 3-277 limits assumed): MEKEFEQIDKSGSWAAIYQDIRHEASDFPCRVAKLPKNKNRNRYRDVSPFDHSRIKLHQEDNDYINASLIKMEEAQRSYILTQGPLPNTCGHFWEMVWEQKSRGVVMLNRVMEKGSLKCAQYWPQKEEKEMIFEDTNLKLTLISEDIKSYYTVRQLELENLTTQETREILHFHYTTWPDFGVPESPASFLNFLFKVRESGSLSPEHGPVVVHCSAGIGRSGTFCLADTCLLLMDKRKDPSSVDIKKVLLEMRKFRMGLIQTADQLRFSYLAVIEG
As to the kind of experiment: In vitro PTPase inhibition assay (pNPP, colorimetric), PTP-1B. As to conditions: Table 8; 1 μM compound.

Molecules are shown by their SMILES.

PTPα, sequence (P18433 20-802): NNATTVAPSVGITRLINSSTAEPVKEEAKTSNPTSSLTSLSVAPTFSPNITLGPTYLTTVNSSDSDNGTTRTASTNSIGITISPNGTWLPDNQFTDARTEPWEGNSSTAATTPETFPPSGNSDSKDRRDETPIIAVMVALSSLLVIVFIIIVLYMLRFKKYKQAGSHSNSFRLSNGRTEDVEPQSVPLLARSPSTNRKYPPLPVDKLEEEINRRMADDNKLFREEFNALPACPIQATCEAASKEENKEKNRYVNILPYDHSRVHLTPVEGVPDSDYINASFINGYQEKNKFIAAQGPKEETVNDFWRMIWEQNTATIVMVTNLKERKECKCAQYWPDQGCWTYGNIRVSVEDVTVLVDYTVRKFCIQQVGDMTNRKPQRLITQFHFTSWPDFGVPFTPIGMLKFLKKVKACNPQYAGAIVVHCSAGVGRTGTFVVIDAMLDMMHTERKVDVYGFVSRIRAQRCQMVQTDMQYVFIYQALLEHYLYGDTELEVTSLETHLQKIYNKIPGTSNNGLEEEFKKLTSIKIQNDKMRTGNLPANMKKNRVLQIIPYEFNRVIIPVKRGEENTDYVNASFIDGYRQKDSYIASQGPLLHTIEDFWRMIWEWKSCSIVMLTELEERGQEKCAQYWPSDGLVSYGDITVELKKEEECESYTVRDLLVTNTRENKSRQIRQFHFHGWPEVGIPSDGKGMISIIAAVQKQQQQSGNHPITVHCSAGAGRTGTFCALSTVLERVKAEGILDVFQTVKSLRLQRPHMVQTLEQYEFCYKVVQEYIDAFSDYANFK

Consider `O=C(O)/C=C/c1ccc(C(=O)OC(C(=O)NCCC(=O)O)c2ccc(Br)cc2)cc1` (racemic) [Compound 36], for which the “% inhibition of PTP1C at 100 μM” value in experiment [1] is on record as 42%. In experiment [2], the “% inhibition of PTPα at 100 μM” value is 0%. For the same molecule, in experiment [3], the “% inhibition of PTP1B at 1 μM” value came out at 52%.

As to `O=C(O)/C=C/c1ccc(C(=O)OC(C(=O)NCCCCCC(=O)O)c2ccc(Br)cc2)cc1` (racemic) [Compound 37], the “% inhibition of PTP1C at 100 μM” value in experiment [1] stood at 59%. The “% inhibition of PTPα at 100 μM” value in experiment [2] is on record as 63%. Besides, the “% inhibition of PTP1B at 1 μM” value in experiment [3] is 85%.

Regarding `CCCCCCC(OC(=O)c1ccc(/C=C/C(=O)O)cc1)C(=O)NCCC(=O)O` (racemic) [Compound 38], the “% inhibition of PTP1C at 100 μM” value in experiment [1] was 63%. The “% inhibition of PTPα at 100 μM” value in experiment [2] turned out to be 71%. For the same molecule, the “% inhibition of PTP1B at 1 μM” value in experiment [3] was 93%.

`CCCCCCC(OC(=O)c1ccc(/C=C/C(=O)O)cc1)C(=O)NCCCCCC(=O)O` (racemic) [Compound 39]: the “% inhibition of PTP1C at 100 μM” value in experiment [1] turned out to be 53%. The “% inhibition of PTPα at 100 μM” value in experiment [2] stood at 47%. The “% inhibition of PTP1B at 1 μM” value in experiment [3] is given as 82%.

Consider `CCCCCCCCCC(OC(=O)c1ccc(/C=C/C(=O)O)cc1)C(=O)NCCC(=O)O` (racemic) [Compound 40], for which the “% inhibition of PTP1C at 100 μM” value in experiment [1] turned out to be 62%. Further, the “% inhibition of PTPα at 100 μM” value in experiment [2] was 82%. Besides, the “% inhibition of PTP1B at 1 μM” value in experiment [3] is reported as 88%.

Take `CCCCCCCCCC(OC(=O)c1ccc(/C=C/C(=O)O)cc1)C(=O)NCCCCCC(=O)O` (racemic) [Compound 41]: the “% inhibition of PTP1C at 100 μM” value in experiment [1] worked out at 17%. The “% inhibition of PTPα at 100 μM” value in experiment [2] was 20%. The “% inhibition of PTP1B at 1 μM” value in experiment [3] is 39%.

As to `COc1ccc(C(=O)OC(C(=O)NCCC(=O)O)c2ccc(/C=C/C(=O)O)cc2)cc1` (racemic) [Compound 42], in experiment [1], the “% inhibition of PTP1C at 100 μM” value worked out at 88%. For the same molecule, the “% inhibition of PTPα at 100 μM” value in experiment [2] was determined as 92%. Moreover, in experiment [3], the “% inhibition of PTP1B at 1 μM” value is recorded as 84%.

Consider `COc1ccc(C(=O)OC(C(=O)NCCCCCC(=O)O)c2ccc(/C=C/C(=O)O)cc2)cc1` (racemic) [Compound 43], for which the “% inhibition of PTP1C at 100 μM” value in experiment [1] was found to be 79%. Moreover, the “% inhibition of PTPα at 100 μM” value in experiment [2] is given as 82%. Also, the “% inhibition of PTP1B at 1 μM” value in experiment [3] was found to be 76%.

With `O=C(O)/C=C/c1ccc(C(OC(=O)c2ccc([N+](=O)[O-])cc2)C(=O)NCCC(=O)O)cc1` (racemic) [Compound 44], in experiment [1], the “% inhibition of PTP1C at 100 μM” value is 86%. For the same molecule, the “% inhibition of PTPα at 100 μM” value in experiment [2] is reported as 87%. Moreover, the “% inhibition of PTP1B at 1 μM” value in experiment [3] was determined as 79%.

Regarding `O=C(O)/C=C/c1ccc(C(OC(=O)/C=C/c2ccc(F)cc2)C(=O)NCCC(=O)O)cc1` (racemic) [Compound 45], in experiment [1], the “% inhibition of PTP1C at 100 μM” value stood at 84%. In addition, the “% inhibition of PTPα at 100 μM” value in experiment [2] worked out at 85%. Moreover, the “% inhibition of PTP1B at 1 μM” value in experiment [3] was 85%.

For the molecule `O=C(O)/C=C/c1ccc(C(OC(=O)/C=C/c2ccc(F)cc2)C(=O)NCCCCCC(=O)O)cc1` (racemic) [Compound 46], the “% inhibition of PTP1C at 100 μM” value in experiment [1] is given as 61%. The “% inhibition of PTPα at 100 μM” value in experiment [2] was 73%. For the same molecule, the “% inhibition of PTP1B at 1 μM” value in experiment [3] was determined as 75%.

In the case of `CCCC(CCC)C(=O)OC(C(=O)NCCC(=O)O)c1ccc(/C=C/C(=O)O)cc1` (racemic) [Compound 47], the “% inhibition of PTP1C at 100 μM” value in experiment [1] was 63%. Also, the “% inhibition of PTPα at 100 μM” value in experiment [2] is 48%. Further, the “% inhibition of PTP1B at 1 μM” value in experiment [3] was determined as 68%.

For `CCCC(CCC)C(=O)OC(C(=O)NCCCCCC(=O)O)c1ccc(/C=C/C(=O)O)cc1` (racemic) [Compound 48], the “% inhibition of PTP1C at 100 μM” value in experiment [1] came to 33%. Also, in experiment [2], the “% inhibition of PTPα at 100 μM” value stood at 3%. For the same molecule, the “% inhibition of PTP1B at 1 μM” value in experiment [3] came out at 69%.

Regarding `O=C(O)/C=C/c1ccc(C(OC(=O)CCC2CCCC2)C(=O)NCCC(=O)O)cc1` (racemic) [Compound 49], in experiment [1], the “% inhibition of PTP1C at 100 μM” value is given as 35%. Moreover, the “% inhibition of PTPα at 100 μM” value in experiment [2] was determined as 0%. For the same molecule, the “% inhibition of PTP1B at 1 μM” value in experiment [3] worked out at 37%.

As for `O=C(O)/C=C/c1ccc(C(OC(=O)CCC2CCCC2)C(=O)NCCCCCC(=O)O)cc1` (racemic) [Compound 50], the “% inhibition of PTP1C at 100 μM” value in experiment [1] amounted to 25%. Also, in experiment [2], the “% inhibition of PTPα at 100 μM” value is given as 37%. Besides, in experiment [3], the “% inhibition of PTP1B at 1 μM” value is 50%.
